Laboratory results as given in PMC6297244, “Synthesis and Kinetic evaluation of an azido analogue of methylerythritol phosphate: a Novel Inhibitor of E. coli YgbP/IspD” (Scientific Reports, 2018).

Biological target: T1, YgbP/IspD (Escherichia coli, UniProt Q46893)
T1 sequence (Q46893 2-236): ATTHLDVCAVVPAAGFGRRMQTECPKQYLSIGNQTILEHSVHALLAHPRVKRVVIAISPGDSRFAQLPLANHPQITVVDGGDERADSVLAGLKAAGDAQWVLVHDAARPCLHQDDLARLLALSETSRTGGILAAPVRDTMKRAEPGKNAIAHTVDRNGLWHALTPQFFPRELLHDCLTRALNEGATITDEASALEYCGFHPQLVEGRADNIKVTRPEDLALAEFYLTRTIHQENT
Assay: steady-state inhibition kinetics, malachite green phosphate assay coupled to inorganic pyrophosphatase
Type: biochemical

Compound `[N-]=[N+]=NC[C@](O)(CO)[C@H](O)COP(=O)(O)O` [compound 11, MEPN3] has a Ki of 21 ± 3 µM.
